Experimental data reported in patent US20030133972A1, “Targeted multivalent macromolecules” (priority 2000, published 2003).
Where “and” joins values, the source holds several entries; their conditions need not be identical. Equal values may be shown once.

How the values were obtained:
[1] = tested on: collagen receptors (α2β1 integrins); experiment: Cell adhesion assay on plates coated with collagen; assay type: cell-based
Procedure: The cell adhesion assay was also performed with plates coated with collagen. Collagen binds to collagen receptors (α2β1 integrins) but not αvβ3 integrins. […] Without being bound by theory, it is believed that the observed inhibition of cell adhesion by PV-integrin agonist is due to the PV preventing interaction of collagen and its receptor by steric hindrance, due to the large size of the PV. Thus, not only does the PV targeted to a specific receptor bind to the receptor on the cell surface, but it blocks access to adjacent receptors due to its steric bulk.

[2] = tested on: αvβ3 positive M21 Melanoma cells binding to vitronectin coated plates; experiment: Cell adhesion inhibition assay on vitronectin coated plates; assay type: cell-based, human; details: 1 h incubation, PVs as equivalents of compound 10 on the surface, read-out: Cell Adhesion Assay IC50 (μM of 10 on NPs)
[3] = biological target: αvβ3 integrin (Homo sapiens, UniProt P05106+P06756); experiment: Competitive integrin binding assay (PVs mixed with free ligand 10); details: read-out: concentration of free ligand 10 to achieve 50% inhibition of PV binding; against PV1 carrying the equivalent of 0.5 μM of 10 on its surface
[4] = tested on: MS1 mouse endothelial pancreatic islet cells; experiment: In vitro cell proliferation assay (crystal violet), endothelial cells; assay type: cell-based; details: murine endothelial cells
Procedure: The effect of free doxorubicin or liposome-encapsulated doxorubicin on the cells was assayed calorimetrically by crystal violet staining method with slight modification. Mouse endothelial cells (ATCC# CRL-2279) and mouse melanoma cells (M2) were seeded in 96well flat-bottomed microtitre plates. The effect of the vesicles on cell proliferation was determined with cells near confluence (about 80%). The medium in each well was replaced with 100 ul of culture medium containing 250 ug/ml of vesicles containing doxorubicin. The mouse endothelial and melanoma cells were incubated for 1 hour at 37° C. and 5% CO2. After 1 hour incubation, the drug was removed, and compete medium that was lacking drug was added, and the cells were incubated for 48 hours at 37° C. and 5% CO2. The experiment was performed in duplicate. At the end of the incubation period, the cells were washed once with PBS and the cultures were fixed by 70% ethanol overnight. Next, the cells were stained with 100 ul of 0.1% crystal violet in 10% ethanol for 10 minutes at room temperature, and the cells were gently washed with water for 5 times. Next, 100 ul of 1% SDS was added to each well and the plates were placed on an orbital shaker for 15 minutes. After the crystal violet in cell membrane was removed with SDS, the plate was read at 590 nm. Finally, cell viability was evaluated as the mean value of optical density.

[5] = biological target: VEGFR1 (Homo sapiens, UniProt P17948); details: affinity of VEGFR1 for VEGF; cited from earlier work

In the case of “4-[2-(3,4,5,6-Tetrahydropyrimidin-2-ylamino)ethyloxy]-benzoyl-2-(S)amino Ethylsulfonylamino-β-alanine [Compound 10]”, the “inhibition of cell adhesion to collagen coated plates” value [1] is reported as “neither the PV alone nor the agonist alone inhibited cell adhesion”, the IC50 [2] is reported as 64 µM and 63.9 µM and the IC50 [3] is reported as 65 µM.

In the case of `COc1cccc2c1C(=O)c1c(O)c3c(c(O)c1C2=O)C[C@@](O)(C(=O)CO)C[C@@H]3O[C@H]1C[C@H](N)[C@H](O)[C@H](C)O1` [Doxorubicin, doxorubicin], the “effect on cell proliferation” value [4] is reported as “significant reductions in cell proliferation”.

In the case of VEGF, the Kd [5] is given as 0.001 to 0.02 nM.
